# Molecular target: USP30 (Homo sapiens (Human), UniProt Q70CQ3)
# Assay: USP30 biochemical IC50 assay
# Conditions: fluorescence polarisation, TAMRA labelled peptide linked to ubiquitin as substrate; enzyme and compound incubated 30 min at room temp; read-out: IC50 range
# Procedure: Reactions were performed in duplicate in black 384 well plates (small volume, Greiner 784076) in a final reaction volume of 21 μl. Either 1 μl of 50% DMSO or diluted compound was added to the plate. USP30 was diluted in reaction buffer (40 mM Tris, pH 7.5, 0.005% Tween 20, 0.5 mg/ml BSA, 5 mM beta-mercaptoethanol) to the equivalent of 0.05 μl/well and 10 μl of diluted USP30 was added to the compound. Enzyme and compound were incubated for 30 min at room temp. Reactions were initiated by the addition of 50 nM of TAMRA labelled peptide linked to ubiquitin via an iso-peptide bond as fluorescence polarisation substrate. Reactions were read immediately after addition of substrate and following a 2 h incubation at room temperature. Readings were performed on a Pherastar Plus (BMG Labtech). λ Excitation 540 nm; λ Emission 590 nm.
# USP30, sequence (Q70CQ3 57-517): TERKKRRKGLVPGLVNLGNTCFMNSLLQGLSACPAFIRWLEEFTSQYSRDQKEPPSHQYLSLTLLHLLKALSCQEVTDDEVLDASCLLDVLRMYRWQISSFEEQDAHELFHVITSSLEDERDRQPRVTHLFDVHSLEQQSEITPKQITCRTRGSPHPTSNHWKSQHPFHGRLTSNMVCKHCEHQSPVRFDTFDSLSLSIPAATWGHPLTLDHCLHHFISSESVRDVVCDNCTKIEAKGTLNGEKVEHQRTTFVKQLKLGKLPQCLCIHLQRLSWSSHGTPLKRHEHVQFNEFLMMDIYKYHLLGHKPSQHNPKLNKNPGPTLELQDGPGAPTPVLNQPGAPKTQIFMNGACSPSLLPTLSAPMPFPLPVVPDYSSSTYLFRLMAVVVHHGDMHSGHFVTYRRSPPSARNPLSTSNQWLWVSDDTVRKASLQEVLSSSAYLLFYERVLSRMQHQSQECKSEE
row,SMILES,IC50
1,"N#CN1CCOC(C(=O)Nc2cc(-c3cccc(C(F)(F)F)c3)no2)C1 (racemic) [Example 19, 4-Cyano-N-(3-(3-(trifluoro-methyl)phenyl)isoxazol-5-yl)morpholine-2-carboxamide]",0.1 to 1 µM
2,"N#Cc1cccc(-c2ccnc(NC(=O)C3(F)CCCN(C#N)C3)c2)c1 (racemic) [Example 47, 1-Cyano-N-(4-(3-cyanophenyl)pyridin-2-yl)-3-fluoropiperidine-3-carboxamide]",1 to 10 µM
3,"N#CN1CCC[C@](F)(C(=O)Nc2cn(-c3cccc(C(F)(F)F)c3)cn2)C1 (stereo in doubt) [Example 80, 1-Cyano-3-fluoro-N-(1-(3-(trifluoromethyl)phenyl)-1H-imidazol-4-yl)piperidine-3-carboxamide]",0.1 to 1 µM
4,"N#CN1CCC[C@](F)(C(=O)Nc2cn(-c3cccc(OC(F)(F)F)c3)cn2)C1 (stereo in doubt) [Example 81, 1-Cyano-3-fluoro-N-(1-(3-(trifluoromethoxy)phenyl)-1H-imidazol-4-yl)piperidine-3-carboxamide]",0.1 to 1 µM
5,"CCCOc1cc(NC(=O)C2CN(C#N)CCO2)ccc1-c1ccn[nH]1 (stereo not drawn) [Example 3, 4-Cyano-N-(3-propoxy-4-(1H-pyrazol-5-yl)phenyl)morpholine-2-carboxamide]",0.1 to 1 µM
6,"N#CN1CCOC(C(=O)Nc2nc3ccc(-c4cn[nH]c4)cc3s2)C1 (stereo not drawn) [Example 7, N-(6-(1H-Pyrazol-4-yl)benzo[d]thiazol-2-yl)-4-cyanomorpholine-2-carboxamide]",0.1 to 1 µM
7,"N#CN1CCOC(C(=O)Nc2ccc(-c3ccccc3)cc2)C1 (stereo not drawn) [Example 9, N-([1,1′-Biphenyl]-4-yl)-4-ycanomorpholine-2-carboxamide]",1 to 10 µM
8,"N#CN1CCOC(C(=O)Nc2cc(-c3ccccc3)[nH]n2)C1 (stereo not drawn) [Example 11, 4-Cyano-N-(5-phenyl-1H-pyrazol-3-yl)morpholine-2-carboxamide]",1 to 10 µM
9,"N#CN1CCOC(C(=O)Nc2ccc(-c3ccccc3)cn2)C1 (stereo not drawn) [Example 12, 4-Cyano-N-(5-phenylpyridin-2-yl)morpholine-2-carboxamide]",1 to 10 µM
10,"N#CN1CCOC(C(=O)Nc2cc(-c3ccccc3)on2)C1 (stereo not drawn) [Example 13, 4-Cyano-N-(5-phenylisoxazol-3-yl)morpholine-2-carboxamide]",1 to 10 µM
11,"N#Cc1ccnc(-c2ccnc(NC(=O)C3CN(C#N)CCO3)c2)c1 (stereo not drawn) [Example 14, 4-Cyano-N-(4-cyano-[2,4′-bipyridin]-2′-yl)morpholine-2-carboxamide]",1 to 10 µM
12,"COc1cccc(-c2cc(NC(=O)[C@H]3CN(C#N)CCO3)ncn2)c1 [Example 22, (R)-4-Cyano-N-(6-(3-methoxy-phenyl)pyrimidin-4-yl)morpholine-2-carboxamide]",1 to 10 µM
13,"N#CN1CCO[C@@H](C(=O)Nc2cc(-c3cccc(C(N)=O)c3)ncn2)C1 [Example 27, (R)-N-(6-(3-Carbamoylphenyl)-pyrimidin-4-yl)-4-cyanomorpholine-2-carboxamide]",1 to 10 µM
14,"N#CN1CCO[C@@H](C(=O)Nc2cnc(-c3ccccc3)s2)C1 [Example 28, (R)-4-Cyano-N-(2-phenylthiazol-5-yl)morpholine-2-carboxamide]",1 to 10 µM

# Continued, values first:
row,IC50,SMILES
1,0.1 to 1 µM,"N#CN1CCCC(F)(C(=O)Nc2ccc(-c3ccn[nH]3)cn2)C1 (racemic) [Example 49, N-(5-(1H-Pyrazol-5-yl)pyridin-2-yl)-1-cyano-3-fluoropiperidine-3-carboxamide]"
2,0.1 to 1 µM,"N#CN1CCO[C@@H](C(=O)Nc2cc(-c3ccccc3)ccn2)C1 [Example 1, (R)-4-cyano-N-(4-phenylpyridin-2-yl)morpholine-2-carboxamide]"
3,0.1 to 1 µM,"N#CN1CCOC(C(=O)Nc2ncc(-c3ccc(F)cc3)s2)C1 (stereo not drawn) [Example 2, 4-Cyano-N-(5-(4-fluorophenyl)thiazol-2-yl)morpholine-2-carboxamide]"
4,< 0.1 µM,"N#Cc1cccc(-c2cc(NC(=O)[C@H]3CN(C#N)CCO3)ncn2)c1 [Example 4, (R)-4-Cyano-N-(6-(3-cyanophenyl)pyrimidin-4-yl)morpholine-2-carboxamide]"
5,1 to 10 µM,"Cn1cc(-c2ccc(NC(=O)C3CN(C#N)CCO3)cc2)cn1 (stereo not drawn) [Example 5, 4-Cyano-N-(4-(1-methyl-1H-pyrazol-4-yl)phenyl)morpholine-2-carboxamide]"
6,1 to 10 µM,"COc1cccc(-c2cc(NC(=O)C3CN(C#N)CCO3)on2)c1 (stereo not drawn) [Example 10, 4-Cyano-N-(3-(3-methoxyphe-nyl)isoxazol-5-yl)morpholine-2-carboxamide]"
7,1 to 10 µM,"N#CN1CCOC(C(=O)Nc2ccc(-c3ccccc3)nc2)C1 (stereo not drawn) [Example 17, 4-Cyano-N-(6-phenylpyridin-3-yl)morpholine-2-carboxamide]"
8,0.1 to 1 µM,"N#Cc1cc(-c2ccnc(NC(=O)C3CN(C#N)CCO3)c2)ccn1 (stereo not drawn) [Example 18, 4-Cyano-N-(2′-cyano-[4,4′-bipyridin]-2-yl)morpholine-2-carboxamide]"
9,0.1 to 1 µM,"N#CN1CCO[C@@H](C(=O)Nc2ncc(-c3ccccc3)s2)C1 [Example 20, (R)-4-Cyano-N-(5-phenylthiazol-2-yl)morpholine-2-carboxamide]"
10,0.1 to 1 µM,"N#CN1CCO[C@@H](C(=O)Nc2cc(-c3cccc(Cl)c3)ncn2)C1 [Example 21, (R)-N-(6-(3-Chlorophenyl)-pyrimidin-4-yl)-4-cyanomorpholine-2-carboxamide]"
11,1 to 10 µM,"CC(C)Oc1cccc(-c2cc(NC(=O)[C@H]3CN(C#N)CCO3)ncn2)c1 [Example 23, (R)-4-Cyano-N-(6-(3-isopropoxy-phenyl)pyrimidin-4-yl)morpholine-2-carboxamide]"
12,0.1 to 1 µM,"N#Cc1cc(F)cc(-c2cc(NC(=O)[C@H]3CN(C#N)CCO3)ncn2)c1 [Example 24, (R)-4-Cyano-N-(6-(3-cyano-5-fluoro-phenyl)pyrimidin-4-yl)morpholine-2-carboxamide]"
13,1 to 10 µM,"N#Cc1ccc(-c2cc(NC(=O)[C@H]3CN(C#N)CCO3)ncn2)cc1 [Example 25, (R)-4-Cyano-N-(6-(4-cyanophenyl)pyrimidin-4-yl)morpholine-2-carboxamide]"
14,0.1 to 1 µM,"N#CN1CCO[C@@H](C(=O)Nc2cc(-c3ccc(Cl)cc3)ncn2)C1 [Example 26, (R)-N-(6-(4-Chlorophenyl)-pyrimidin-4-yl)-4-cyanomorpholine-2-carboxamide]"
15,1 to 10 µM,"N#CN1CCO[C@@H](C(=O)Nc2ccc(-c3ccn[nH]3)cn2)C1 [Example 29, (R)-N-(5-(1H-Pyrazol-5-yl)pyridin-2-yl)-4-cyanomorpholine-2-carboxamide]"
16,1 to 10 µM,"N#CN1CCO[C@@H](C(=O)Nc2cc(-c3cccc4[nH]ncc34)ncn2)C1 [Example 30, (R)-N-(6-(1H-indazol-4-yl)pyrimidin-4-yl)-4-cyanomorpholine-2-carboxamide]"
17,1 to 10 µM,"N#CN1CCO[C@@H](C(=O)Nc2cc3cc(-c4cn[nH]c4)ccc3cn2)C1 [Example 31, (R)-N-(6-(1H-Pyrazol-4-yl)isoquinolin-3-yl)-4-cyanomorpholine-2-carboxamide]"
18,1 to 10 µM,"N#CN1CCO[C@H](C(=O)Nc2ncc(-c3ccccc3)s2)C1 [Example 33, (S)-4-Cyano-N-(5-phenylthiazol-2-yl)morpholine-2-carboxamide]"
19,1 to 10 µM,"N#CN1CCO[C@H](C(=O)Nc2cc(-c3ccccc3)ccn2)C1 [Example 35, (S)-4-Cyano-N-(4-phenylpyridin-2-yl)morpholine-2-carboxamide]"

# — patent US11370784B2 (MISSION THERAPEUTICS LIMITED, priority 2016, dated 2022)
